Like-named read-outs stand apart in the source and are kept apart here.
Columns and labels:
purified EZH2 enzyme = purified EZH2 enzyme (Homo sapiens (Human), UniProt Q15910); assay: biochemical; conditions: purified EZH2, 4 μM SAM, histone 3.3 substrate, 30° C. three hours, fluorescence polarization readout
[1] = system: EZH2-mediated histone H3 Lys27 trimethylation in Pfeiffer cells (mutant EZH2 A677G); assay: Tri-Methyl Histone H3 (Lys 27) Sandwich ELISA in Pfeiffer cells; format: cell-based, human
Protocol: Briefly, Pfeiffer cells were cultured in RPMI medium supplemented with 10% fetal bovine serum and 1% penicillin and 1% streptomycin in 96 well culture plates at 37° C. to a density of 8000 cells/90 μl/well and the cells were harvested. […] The plates were incubated at 37° C. for 96 hours.
After incubation, the cells were pelleted by centrifugation in a pre-cooled 4° C. rotor at 1,100 rpm for 10 min and the supernatant was removed by aspiration. The cell pellet was resuspended in 55 μl of Lysis Buffer (0.4M HCl) and incubated on ice with periodic shaking for 30 minutes. The lysed cells were subjected to centrifugation at 4,200 rpm for 10 min at 4° C. and the supernatant containing acid-soluble proteins was collected and the remainder discarded.
A 65 μl aliquot of each cell lysate was added to a well of a microwell strip, the microwells were sealed using tape and incubated either at 37° C. for two hours or at 4° C. overnight. After incubation, the tape was removed at the microwells were washed four times using 200 μl of 1× Wash Buffer. To each washed microwell, a 100 μl aliquot of an anti-trimethyl histone H3 Lys27 Detection Antibody solution was added and the microwells were incubated at 37° C. for one hour. The Detection Antibody solution was removed by aspiration and the wells were washed four times each using 200 μl of 1× Wash Buffer.
A 100 μl aliquot of an HRP-linked secondary antibody was added to each well, the wells were sealed with tape and incubated at 37° C. for 30 min. The HRP-linked secondary antibody solution was removed by aspiration and the wells were washed four times using 200 μl of 1× Wash Buffer. A 100 μl aliquot of a TMB substrate was added to each well, the wells were sealed with tape and incubated at 37° C. for 10 min or 25° C. for 30 min. The reaction was stopped by the addition of 100 μl aliquot of a STOP solution and the plate was shaken briefly. The degree of histone H3 trimethylation was determined using a spectrophotometric readout by measuring the absorbance at 450 nm and then calculating the amount of trimethylated histone H3.

[2] = Homo sapiens, Pfeiffer cells (DLBCL, EZH2 A677G), 96 hours incubation, H3K27me3 ELISA, absorbance at 450 nm, read-out: IC50
[3] = Pfeiffer cells (DLBCL, EZH2 A677G), 96 hours incubation, H3K27me3 ELISA, absorbance at 450 nm, read-out: IC50

CCN(c1cc(Cl)c2c(c1Cl)C(=O)N(Cc1c(=O)[nH]c(C)c3ccoc13)CC2)C1CCOCC1 [Example 3, 7-((5,8-dichloro-7-(ethyl(tetrahydro-2H-pyran-4-yl)amino)-1-oxo-3,4-dihydroisoquinolin-2(1H)-yl)methyl)-4-methylfuro[3,2-c]pyridin-6(5H)-on] was tested, and the IC50 (purified EZH2 enzyme) was 5 nM and the IC50 [1, 2] was 31 nM.
Cc1[nH]c(=O)c(CN2CCc3c(Cl)cc(N4CC5(CCOCC5)C4)c(Cl)c3C2=O)c2cc[nH]c12 [Example 5, 5,8-dichloro-2-((7-methyl-5-oxo-5,6-dihydro-1H-pyrrolo[2,3-c]pyridin-4-yl)methyl)-7-(7-oxa-2-azaspiro[3.5]nonan-2-yl)-3,4-dihydroisoquinolin-1(2H)-one] gave an IC50 (purified EZH2 enzyme) of less than 0.5 nM and an IC50 [1, 2] of 17 nM.
With Cc1[nH]c(=O)c(CN2CCc3c(Cl)cc(N4CC5(CCOCC5)C4)c(Cl)c3C2=O)c2occc12 [Example 2, 7-((5,8-dichloro-1-oxo-7-(7-oxa-2-azaspiro[3.5]nonan-2-yl)-3,4-dihydroisoquinolin-2(1H)-yl)methyl)-4-methylfuro[3,2-c]pyridin-6(5H)-one] the IC50 (purified EZH2 enzyme) was 5 nM and the IC50 [1, 2] was 273 nM.
Cc1noc(C)c1-c1cc(Cl)c2c(c1Cl)C(=O)N(Cc1c(=O)[nH]c(C)c3ccoc13)CC2 [Example 16, 7-((5,8-dichloro-7-(3,5-dimethylisoxazol-4-yl)-1-oxo-3,4-dihydroisoquinolin-2(1H)-yl)methyl)-4-methylfuro[3,2-c]pyridin-6(5H)-one] showed an IC50 (purified EZH2 enzyme) of 3 nM and an IC50 [1, 2] of 7 nM.
Work on COC(c1cc(Cl)c2c(c1Cl)C(=O)N(Cc1c(=O)[nH]c(C)c3sccc13)CC2)C1COC1 (centres unmarked) [Example 12, 4-((5,8-dichloro-7-(methoxy(oxetan-3-yl)methyl)-1-oxo-3,4-dihydroisoquinolin-2(1H)-yl)methyl)-7-methylthieno[2,3-c]pyridin-5(6H)-one] yielded an IC50 (purified EZH2 enzyme) of 37 nM and an IC50 [1, 2] of 330 nM.
Cc1noc(C)c1-c1cc(Cl)c2c(c1Cl)C(=O)N(Cc1c(=O)[nH]c(C)c3[nH]ccc13)CC2 [Example 13, 5,8-dichloro-7-(3,5-dimethylisoxazol-4-yl)-2-((7-methyl-5-oxo-5,6-dihydro-1H-pyrrolo[2,3-c]pyridin-4-yl)methyl)-3,4-dihydroisoquinolin-1 (2H)-one] showed an IC50 (purified EZH2 enzyme) of 2 nM.
Molecule Cc1cc2c(C)[nH]c(=O)c(CN3CCc4c(Cl)cc(OC(C)C)c(Cl)c4C3=O)c2o1 [Example 8, 7-((5,8-dichloro-7-isopropoxy-1-oxo-3,4-dihydroisoquinolin-2(1H)-yl)methyl)-2,4-dimethylfuro[3,2-c]pyridin-6(5H)-one] has an IC50 (purified EZH2 enzyme) of 95 nM.
For COC(c1cc(Cl)c2c(c1Cl)C(=O)N(Cc1c(=O)[nH]c(C)c3ccoc13)CC2)C1CS(=O)(=O)C1 (centres unmarked) [Example 18, 7-((5,8-dichloro-7-((1,1-dioxidothietan-3-yl)(methoxy)methyl)-1-oxo-3,4-dihydroisoquinolin-2(1H)-yl)methyl)-4-methylfuro[3,2-c]pyridin-6(5H)-one], the IC50 (purified EZH2 enzyme) was 2 nM and the IC50 [1, 2] was 78 nM.
Work on “7-[[5-bromo-8-chloro-7-(3,5-dimethyltriazol-4-yl)-1-oxo-3,4-dihydroisoquinolin-2-yl]methyl]-4-methyl-5H-furo[3,2-c]pyridin-6-one [Example 7]” yielded an IC50 (purified EZH2 enzyme) of 3 nM and an IC50 [1, 3] of 30 nM.
For Cc1[nH]c(=O)c(CN2CCc3ccc(OC(C)C)c(Cl)c3C2=O)c2occc12 [Example 6, 7-((8-chloro-7-isopropoxy-1-oxo-3,4-dihydroisoquinolin-2(1H)-yl)methyl)-4-methylfuro[3,2-c]pyridin-6(5H)-one], the IC50 (purified EZH2 enzyme) was 7 nM and the IC50 [1, 2] was 44 nM.
COC(c1cc(Cl)c2c(c1Cl)C(=O)N(Cc1c(=O)[nH]c(C)c3ccoc13)CC2)C1COC1 (centres unmarked) [Example 9, 7-((5,8-dichloro-7-(methoxy(oxetan-3-yl)methyl)-1-oxo-3,4-dihydroisoquinolin-2(1H)-yl)methyl)-4-methylfuro[3,2-c]pyridin-6(5H)-one] gave an IC50 (purified EZH2 enzyme) of 4 nM and an IC50 ([1]; Homo sapiens, Pfeiffer, 96 h) of 126 nM.
In the case of Cc1[nH]c(=O)c(CN2CCc3c(Cl)cc(OC(C)C)c(Cl)c3C2=O)c2cc[nH]c12 [Example 4, 5,8-dichloro-7-isopropoxy-2-((7-methyl-5-oxo-5,6-dihydro-1H-pyrrolo[2,3-c]pyridin-4-yl)methyl)-3,4-dihydroisoquinolin-1(2H)-one], the IC50 (purified EZH2 enzyme) is reported as 202 nM and the IC50 [1, 2] is reported as 1040 nM.
Cc1[nH]c(=O)c(CN2CCc3c(Cl)cc(C(C)C4COC4)c(Cl)c3C2=O)c2cc[nH]c12 (centres unmarked) [Example 19, 5,8-dichloro-2-[(7-methyl-5-oxo-1,6-dihydropyrrolo[2,3-c]pyridin-4-yl)methyl]-7-[1-(oxetan-3-yl)ethyl]-3,4-dihydroisoquinolin-1-one] was tested, and the IC50 (purified EZH2 enzyme) was 2 nM and the IC50 [1, 2] was 78 nM.
Work on COC(c1cc(Cl)c2c(c1Cl)C(=O)N(Cc1c(=O)[nH]c(C)c3[nH]ccc13)CC2)C1CN(C)C1 (centres unmarked) [Example 11, 5,8-dichloro-7-(methoxy(1-methylazetidin-3-yl)methyl)-2-((7-methyl-5-oxo-5,6-dihydro-1H-pyrrolo[2,3-c]pyridin-4-yl)methyl)-3,4-dihydroisoquinolin-1(2H)-one] yielded an IC50 (purified EZH2 enzyme) of 10 nM and an IC50 [1, 2] of 12 nM.
“5,8-dichloro-7-(3,5-dimethyltriazol-4-yl)-2-[(7-methyl-5-oxo-1,6-dihydropyrrolo[2,3-c]pyridin-4-yl)methyl]-3,4-dihydroisoquinolin-1-one [Example 15]” showed an IC50 (purified EZH2 enzyme) of 2 nM and an IC50 [1, 3] of 6 nM.
COC(c1cc(Cl)c2c(c1Cl)C(=O)N(Cc1c(=O)[nH]c(C)c3[nH]ccc13)CC2)C1COC1 (centres unmarked) [Example 17, 5,8-dichloro-7-[methoxy(oxetan-3-yl)methyl]-2-[(7-methyl-5-oxo-1,6-dihydropyrrolo[2,3-c]pyridin-4-yl)methyl]-3,4-dihydroisoquinolin-1-one] was tested, and the IC50 (purified EZH2 enzyme) was 1 nM.
COC(c1cc(Cl)c2c(c1Cl)C(=O)N(Cc1c(=O)[nH]c(C)c3ccoc13)CC2)C1CN(C)C1 (centres unmarked) [Example 10, 7-((5,8-dichloro-7-(methoxy(1-methylazetidin-3-yl)methyl)-1-oxo-3,4-dihydroisoquinolin-2(1H)-yl)methyl)-4-methylfuro[3,2-c]pyridin-6(5H)-one] gave an IC50 [1, 2] of 336 nM.
Cc1[nH]c(=O)c(CN2CCc3c(Cl)cc(OC(C)C)c(Cl)c3C2=O)c2occc12 [Example 1, 7-((5,8-dichloro-7-isopropoxy-1-oxo-3,4-dihydroisoquinolin-2(1H)-yl)methyl)-4-methylfuro[3,2-c]pyridin-6(5H)-one] showed an IC50 (purified EZH2 enzyme) of 6 nM and an IC50 ([1]; Homo sapiens, Pfeiffer, 96 h) of 759 nM.
